Measurements taken from patent US7741485B2, “Benzenesulphonamide derivatives as herbicides or desiccant/defoliant compounds” (BASF Aktiengesellschaft, priority 2003, dated 2010).

How the values were obtained:
[1] = system: common lambsquarters; test: greenhouse herbicidal test, post-emergence treatment; type: in vivo
Source text: (§1) The seeds of the test plants were sown separately for each species. For the post-emergence treatment, the test plants were first grown to a height of 3 to 15 cm, depending on the plant form, and only then treated with the active compounds, emulsified or suspended in water. The test plants were for this purpose either sown directly and grown in the same containers, or they were first grown separately as seedlings and transplanted into the test containers a few days prior to treatment. The application rate for the pre- and post-emergence treatment was from 62.5 to 3.1 g of a.s./ha. Depending on the species, the plants were kept at 10-25° C. or 20-35° C. The test period extended over 2 to 4 weeks. During this time, the plants were tended, and their response to the individual treatments was evaluated. Evaluation was carried out using a scale from 0 to 100. 100 means no emergence of the plants, or complete destruction of at least the above-ground parts, and 0 means no damage, or normal course of growth. The plants used in the greenhouse experiments were composed of the following species: [table]

[2] = system: velvet leaf; test: as above; type: in vivo; conditions: application rates of 15.63 g/ha
Source text: as §1

[3] = system: Bengal commelina; test: as above; type: in vivo; conditions: application rates of 15.63 g/ha
Source text: as §1

[4] = system: pigweed; test: greenhouse herbicidal test, post-emergence treatment; type: in vivo
Source text: as §1

[5] = system: common morning glory; test: as above; type: in vivo
Source text: as §1

[6] = system: pigweed; test: greenhouse herbicidal test, pre-emergence treatment; type: in vivo; conditions: for pre-emergence activity against pigweed: application rates of 12.5 and 6.2 g/ha; for control of pigweed, pre-emergence method: application rates of 6.2 and 3.1 g/ha
Source text: (§2) The seeds of the test plants were sown separately for each species. For the pre-emergence treatment, the active compounds, emulsified or suspended in water, were applied directly after sowing by means of finely distributing nozzles. The containers were irrigated gently to promote germination and growth and subsequently covered with transparent plastic hoods until the plants had rooted. This cover caused uniform germination of the test plants, unless this was adversely affected by the active compounds. The application rate for the pre- and post-emergence treatment was from 62.5 to 3.1 g of a.s./ha. Depending on the species, the plants were kept at 10-25° C. or 20-35° C. The test period extended over 2 to 4 weeks. During this time, the plants were tended, and their response to the individual treatments was evaluated. Evaluation was carried out using a scale from 0 to 100. 100 means no emergence of the plants, or complete destruction of at least the above-ground parts, and 0 means no damage, or normal course of growth. The plants used in the greenhouse experiments were composed of the following species: [table]

[7] = system: common lambsquarters; test: as above; type: in vivo; conditions: for pre-emergence activity against common lambsquarters: application rates of 12.5 and 6.2 g/ha; for control of common lambsquarters, pre-emergence method: application rates of 6.2 and 3.1 g/ha
Source text: as §2

[8] = system: common morning glory; test: as above; type: in vivo; conditions: for pre-emergence activity against common morning glory: application rates of 12.5 and 6.2 g/ha; for control of morning glory, pre-emergence method: application rates of 6.2 and 3.1 g/ha
Source text: as §2

[9] = system: wild buckwheat; test: as above; type: in vivo; conditions: application rates of 12.5 and 6.2 g/ha
Source text: as §2

[10] = system: cleavers harrif; test: greenhouse herbicidal test, post-emergence treatment; type: in vivo; conditions: application rates of 15.63 g/ha
Source text: as §1

[11] = system: ladysthumb; test: as above; type: in vivo; conditions: for post-emergence activity against ladiesthumb: application rates of 15.63 g/ha; for post-emergence activity against ladysthumb: application rates of 15.6 and 7.8 g/ha
Source text: as §1

[12] = system: velvet leaf; test: greenhouse herbicidal test, pre-emergence treatment; type: in vivo; conditions: for control of velvet leaf, pre-emergence method: application rates of 6.2 and 3.1 g/ha
Source text: as §2

[13] = system: common nightshade; test: as above; type: in vivo; conditions: application rates of 62.5 and 31.2 g/ha
Source text: as §2

[14] = application rates of 15.63 g/ha
[15] = application rates of 15.6 and 7.8 g/ha
[16] = application rates of 62.5 and 31.2 g/ha

CNC(=O)NS(=O)(=O)c1cc(-n2c(=O)cc(C(F)(F)F)n(C)c2=O)c(F)cc1Cl [Compound 2.17]
very good: post-emergence activity against common lambsquarters [1, 14] | post-emergence activity against velvet leaf [2] | post-emergence activity against Bengal commelina [3]

CC(C)C(=O)NS(=O)(=O)c1cc(-n2c(=O)cc(C(F)(F)F)n(C)c2=O)ccc1Cl [Compound 4.5, N-isobutynyl-[2-chloro-5-(3,6-dihydro-3-methyl-2,6-dioxo-4-trifluoromethyl-1-(2H)-pyrimidinyl)]benzenesulfonamide]
114 to 116 °C: melting point

CCCCCOC(=O)NS(=O)(=O)c1cc(-n2c(=O)cc(C(F)(F)F)n(C)c2=O)c(F)cc1Cl [Compound 3.26]
very good: post-emergence activity against pigweed [4, 15] | post-emergence activity against common lambsquarters [1, 15] | post-emergence activity against common morning glory [5, 15]

COC(=O)NS(=O)(=O)c1cc(-n2c(=O)cc(C(F)(F)F)n(C)c2=O)ccc1Cl [Compound 3.1]
very good: pre-emergence activity against pigweed [6] | pre-emergence activity against common lambsquarters [7] | pre-emergence activity against common morning glory [8] | pre-emergence activity against wild buckwheat [9]

CCC(=O)NS(=O)(=O)c1cc(-n2c(=O)cc(C(F)(F)F)n(C)c2=O)c(F)cc1Cl [Compound 4.14]
very good: post-emergence activity against cleavers harrif [10] | post-emergence activity against pigweed [4, 14] | post-emergence activity against ladiesthumb [11]

C#CC(C)N(C)C(=O)NS(=O)(=O)c1cc(-n2c(=O)cc(C(F)(F)F)n(C)c2=O)c(F)cc1Cl (stereo not drawn) [Compound 2.28]
very good: post-emergence activity against pigweed [4, 14] | post-emergence activity against common lambsquarters [1, 14] | post-emergence activity against common morning glory [5, 14]

CC(C)N(C(=O)NS(=O)(=O)c1cc(-n2c(=O)cc(C(F)(F)F)n(C)c2=O)c(F)cc1Cl)C(C)C [Compound 2.27]
very good: post-emergence activity against pigweed [4, 14] | post-emergence activity against common morning glory [5, 14]

CC(C)COC(=O)NS(=O)(=O)c1cc(-n2c(=O)cc(C(F)(F)F)n(C)c2=O)c(F)cc1Cl [Compound 3.24]
very good: control of pigweed, pre-emergence method [6] | control of common lambsquarters, pre-emergence method [7] | control of velvet leaf, pre-emergence method [12] | control of morning glory, pre-emergence method [8]

CC(C)C(=O)NS(=O)(=O)c1cc(-n2c(=O)cc(C(F)(F)F)n(C)c2=O)c(F)cc1Cl [Compound 4.16]
very good: control of pigweed, pre-emergence method [6] | control of common lambsquarters, pre-emergence method [7] | control of velvet leaf, pre-emergence method [12] | control of morning glory, pre-emergence method [8]

COC(=O)COC(=O)NS(=O)(=O)c1cc(-n2c(=O)cc(C(F)(F)F)n(C)c2=O)c(F)cc1Cl [Compound 3.41]
very good: post-emergence activity against cleavers harrif [10] | post-emergence activity against pigweed [4, 14] | post-emergence activity against ladiesthumb [11]

Cn1c(C(F)(F)F)cc(=O)n(-c2cc(S(=O)(=O)NC(=O)Nc3ccccc3)c(Cl)cc2F)c1=O [Compound 2.29]
very good: post-emergence activity against pigweed [4, 15] | post-emergence activity against common lambsquarters [1, 15] | post-emergence activity against common morning glory [5, 15]

CCOC(=O)NS(=O)(=O)c1cc(-n2c(=O)cc(C(F)(F)F)n(C)c2=O)c(F)cc1Cl [Compound 3.19]
very good: post-emergence activity against pigweed [4, 15] | post-emergence activity against common lambsquarters [1, 15] | post-emergence activity against ladysthumb [11] | post-emergence activity against common morning glory [5, 15]

COCC(C)(C)OC(=O)NS(=O)(=O)c1cc(-n2c(=O)cc(C(F)(F)F)n(C)c2=O)c(F)cc1Cl [Compound 3.42]
very good: post-emergence activity against ladiesthumb [11] | post-emergence activity against velvet leaf [2] | post-emergence activity against common morning glory [5, 14]

CCCOC(=O)NS(=O)(=O)c1cc(-n2c(=O)cc(C(F)(F)F)n(C)c2=O)c(F)cc1Cl [Compound 3.20]
very good: post-emergence activity against pigweed [4, 15] | post-emergence activity against common lambsquarters [1, 15] | post-emergence activity against ladysthumb [11] | post-emergence activity against common morning glory [5, 15]

Cn1c(C(F)(F)F)cc(=O)n(-c2cc(S(=O)(=O)NC(=O)OCc3ccccc3)c(Cl)cc2F)c1=O [Compound 3.32, Benzyl{2-chloro-4-fluoro-5-[3,6-dihydro-3-methyl-2,6-dioxo-4-trifluoromethyl-(2H)-pyrimidin-1-yl]phenyl}sulfonylcarbamate]
very good: effectiveness against pigweed, pre-emergence method [6, 16] | effectiveness against common lambsquarters, pre-emergence method [7, 16] | effectiveness against velvet leaf, pre-emergence method [12, 16] | effectiveness against common nightshade, pre-emergence method [13]

Cn1c(C(F)(F)F)cc(=O)n(-c2cc(S(=O)(=O)NC(=O)OC3CCCC3)c(Cl)cc2F)c1=O [Compound 3.27]
very good: post-emergence activity against pigweed [4, 15] | post-emergence activity against common lambsquarters [1, 15] | post-emergence activity against ladysthumb [11] | post-emergence activity against common morning glory [5, 15]

CCCCOC(=O)NS(=O)(=O)c1cc(-n2c(=O)cc(C(F)(F)F)n(C)c2=O)c(F)cc1Cl [Compound 3.22]
very good: post-emergence activity against pigweed [4, 15] | post-emergence activity against common lambsquarters [1, 15] | post-emergence activity against ladysthumb [11] | post-emergence activity against common morning glory [5, 15]

COC(=O)NS(=O)(=O)c1cc(-n2c(=O)cc(C(F)(F)F)n(C)c2=O)c(F)cc1Cl [Compound 3.18]
very good: pre-emergence activity against pigweed [6] | pre-emergence activity against common lambsquarters [7] | pre-emergence activity against common morning glory [8] | pre-emergence activity against wild buckwheat [9]
